Measured values taken from ChEMBL document CHEMBL3351509, “Identification of 3,6-disubstituted dihydropyrones as inhibitors of human lactate dehydrogenase” (Bioorg Med Chem Lett, 2014).
Values after ≈ are worked out from the molar mass of the structure shown.

Key:
[1] = molecular target: L-lactate dehydrogenase A chain (Homo sapiens, UniProt P00338); assay: Inhibition of human LDH-A by biochemical assay
[2] = Permeability from basolateral to apical side in MDCK cells; type: ADME, cell-based, Canis lupus familiaris; conditions: dog
[3] = Permeability from apical to basolateral side in MDCK cells; type: ADME, cell-based, Canis lupus familiaris; conditions: dog
[4] = Dissociation constant, pKa of the compound; type: physicochemical
[5] = Unbound fraction in rat plasma; type: ADME, cell-free
[6] = Unbound fraction in human plasma; type: ADME, cell-free
[7] = tested on: MCF7; assay: Inhibition of lactate production in human MCF7 cells under standard serum conditions; type: functional, cell-based
[8] = tested on: MCF7; assay: Toxicity in human MCF7 cells assessed as effect on cell viability; type: cell-based
[9] = tested on: MCF7; assay: Inhibition of lactate production in human MCF7 cells in absence of serum; type: functional, cell-based
[10] = Hepatic clearance in rat liver microsomes; type: ADME
[11] = Hepatic clearance in human liver microsomes; type: ADME
[12] = Kinetic solubility in pH 7.4 buffered aqueous solution; type: physicochemical; conditions: read-out: Kinetic_solubility

SMILES: O=C1OC(c2c(Cl)cccc2Cl)CC(O)=C1Sc1ccccc1Cl (stereo not drawn)
- IC50 [1]: 5 µM

SMILES: N#Cc1cccc(C2CC(O)=C(Sc3ccccc3Cl)C(=O)O2)c1 (stereo not drawn)
- IC50 [1]: 9.5 µM

SMILES: O=C1CC(c2ccccc2)CC(O)=C1Sc1ccccc1Cl (stereo not drawn)
- Papp B→A [2]: 18 ×10⁻⁶ cm/s
- IC50 [1]: 4 µM
- Papp A→B [3]: 12 ×10⁻⁶ cm/s
- pKa [4]: 3

SMILES: O=C1OC(c2ccccc2Cl)CC(O)=C1Sc1ccccc1Cl (stereo not drawn)
- IC50 [1]: 5.5 µM

SMILES: O=C1OC2(CCCc3ccccc32)CC(O)=C1Sc1ccccc1Cl (single isomer, unassigned; enantiomer B)
- IC50 [1]: 22 µM

SMILES: O=C1OC(CO)(c2ccccc2)CC(O)=C1Sc1ccccc1Cl (stereo not drawn)
- IC50 [1]: 5.6 µM

SMILES: O=C1OC2(CCc3ccccc32)CC(O)=C1Sc1ccccc1Cl (single isomer, unassigned; enantiomer A)
- IC50 [1]: 0.36 µM

SMILES: O=C1OC(c2ccccc2)CC(O)=C1Oc1ccccc1Cl (stereo not drawn)
- Papp B→A [2]: 6 ×10⁻⁶ cm/s
- fraction unbound [5]: 0.013
- fraction unbound [6]: 0.006
- IC50 [1]: 11 µM
- Papp A→B [3]: 4 ×10⁻⁶ cm/s
- pKa [4]: 3.4

SMILES: O=C1NC(c2ccccc2)CC(O)=C1Nc1ccccc1Cl (stereo not drawn)
- Papp B→A [2]: 30 ×10⁻⁶ cm/s
- IC50 [1]: 66 µM
- Papp A→B [3]: 19 ×10⁻⁶ cm/s
- pKa [4]: 6

SMILES: O=C1OC2(CCCc3ccccc32)CC(O)=C1Sc1ccccc1Cl (single isomer, unassigned; enantiomer A)
- IC50 [1]: 2.1 µM

SMILES: Cn1ccc(C2CC(O)=C(Sc3ccccc3Cl)C(=O)O2)n1 (stereo not drawn)
- IC50 [1]: 35 µM

SMILES: O=C1OC2(CCc3c(Br)cccc32)CC(O)=C1Sc1ccccc1Cl (single isomer, unassigned; enantiomer A)
- IC50 [1]: 0.35 µM

SMILES: O=C1OC(C(=O)O)(c2ccccc2)CC(O)=C1Sc1ccccc1Cl (stereo not drawn)
- IC50 [1]: 46 µM

SMILES: Cc1cccc(C)c1C1CC(O)=C(Sc2ccccc2Cl)C(=O)O1 (stereo not drawn)
- IC50 [1]: 17 µM

SMILES: CN(C)C(=O)C1(c2ccccc2)CC(O)=C(Sc2ccccc2Cl)C(=O)O1 (stereo not drawn)
- IC50 [1]: 22 µM

SMILES: O=C1OC(c2cccnc2)CC(O)=C1Sc1ccccc1Cl (stereo not drawn)
- IC50 [1]: 15 µM

SMILES: O=C1OC(c2ccc(Cl)cc2)CC(O)=C1Sc1ccccc1Cl (stereo not drawn)
- IC50 [1]: 16 µM

SMILES: O=C1OC(c2ccccc2)(C2CC2)CC(O)=C1Sc1ccccc1Cl (stereo not drawn)
- IC50 [1]: 13 µM

SMILES: CCOc1cccc(C2CC(O)=C(Sc3ccccc3Cl)C(=O)O2)c1 (stereo not drawn)
- IC50 [1]: 2.2 µM

SMILES: O=C1OC2(CCc3c(-c4ccccc4)cccc32)CC(O)=C1Sc1ccccc1Cl (single isomer, unassigned; enantiomer b)
- IC50 [1]: 0.61 µM

SMILES: O=C1NC(c2ccccc2)CC(O)=C1Sc1ccccc1Cl (stereo not drawn)
- Papp B→A [2]: 9 ×10⁻⁶ cm/s
- fraction unbound [5]: 0.006
- fraction unbound [6]: 0.003
- Papp A→B [3]: 7 ×10⁻⁶ cm/s
- pKa [4]: 4.1

SMILES: O=C1OC2(CCc3c(Br)cccc32)CC(O)=C1Sc1ccccc1Cl (single isomer, unassigned)
- IC50 [1]: 2.1 µM

SMILES: O=C1OC(c2ccccn2)CC(O)=C1Sc1ccccc1Cl (stereo not drawn)
- IC50 [1]: 3.5 µM

SMILES: O=C1OC(c2ccncc2)CC(O)=C1Sc1ccccc1Cl (stereo not drawn)
- IC50 [1]: 43 µM

SMILES: O=C1CC(c2ccccc2)CC(O)=C1Nc1ccccc1Cl (stereo not drawn)
- Papp B→A [2]: 10 ×10⁻⁶ cm/s
- IC50 [1]: 25 µM
- Papp A→B [3]: 4 ×10⁻⁶ cm/s
- pKa [4]: 4.6

SMILES: O=C1OC(c2cccc(Cl)c2)CC(O)=C1Sc1ccccc1Cl (stereo not drawn)
- IC50 [1]: 3.9 µM

SMILES: CCOc1ccccc1C1CC(O)=C(Sc2ccccc2Cl)C(=O)O1 (stereo not drawn)
- IC50 [1]: 3.8 µM

SMILES: O=C1OC(c2ccccc2)CC(O)=C1Sc1ccccc1Cl (stereo not drawn)
- Papp B→A [2]: 5 ×10⁻⁶ cm/s
- fraction unbound [5]: 0.008
- fraction unbound [6]: 0.008
- IC50 [1]: 4 µM
- Papp A→B [3]: 3 ×10⁻⁶ cm/s
- pKa [4]: 2.4

SMILES: O=C1OC2(CCc3ccccc32)CC(O)=C1Sc1ccccc1Cl (single isomer, unassigned; enantiomer B)
- IC50 [1]: 2.6 µM

SMILES: CNC(=O)CC1(c2ccccc2)CC(O)=C(Sc2ccccc2Cl)C(=O)O1 (stereo not drawn)
- IC50 [1]: 59 µM

SMILES: CC1(c2ccccc2)CC(O)=C(Sc2ccccc2Cl)C(=O)O1 (stereo not drawn)
- IC50 [1]: 4.1 µM

SMILES: O=C1NC(c2ccccc2)CC(O)=C1Oc1ccccc1Cl (stereo not drawn)
- Papp B→A [2]: 12 ×10⁻⁶ cm/s
- fraction unbound [5]: 0.023
- fraction unbound [6]: 0.022
- IC50 [1]: 11 µM
- Papp A→B [3]: 11 ×10⁻⁶ cm/s
- pKa [4]: 5.3

SMILES: O=C1OC(c2ccccc2)CC(O)=C1Nc1ccccc1Cl (stereo not drawn)
- Papp B→A [2]: 10 ×10⁻⁶ cm/s
- IC50 [1]: 13 µM
- Papp A→B [3]: 8 ×10⁻⁶ cm/s
- pKa [4]: 4.2

SMILES: O=C1OC(c2cncnc2)CC(O)=C1Sc1ccccc1Cl (stereo not drawn)
- IC50 [1]: 73 µM

SMILES: O=C1OC(C2CCOCC2)CC(O)=C1Sc1ccccc1Cl (stereo not drawn)
- IC50 [1]: > 100 µM

SMILES: NC(=O)C1(c2ccccc2)CC(O)=C(Sc2ccccc2Cl)C(=O)O1 (stereo not drawn)
- IC50 [1]: 6.6 µM

SMILES: O=C1OC2(CCc3c(-c4ccccc4)cccc32)CC(O)=C1Sc1ccccc1Cl (single isomer, unassigned; enantiomer A)
- fraction unbound [5]: < 0.01
- fraction unbound [6]: < 0.01
- IC50 [1]: 0.03 µM
- EC50 [7]: > 50 µM
- Activity [8]: Non-toxic
- Papp A→B [3]: 1.6 ×10⁻⁶ cm/s
- EC50 [9]: 32 µM
- CLhep predicted [10]: 41 mL/min/kg
- CLhep predicted [11]: 20 mL/min/kg
- solubility kinetic [12]: 169 µM (≈ 73.5 µg/mL)

SMILES: CNC(=O)C1(c2ccccc2)CC(O)=C(Sc2ccccc2Cl)C(=O)O1 (stereo not drawn)
- IC50 [1]: 7.4 µM

SMILES: O=C1OC2(CCOc3ccccc32)CC(O)=C1Sc1ccccc1Cl (single isomer, unassigned; enantiomer B)
- IC50 [1]: 28 µM

SMILES: O=C1CC(c2ccccc2)CC(O)=C1Oc1ccccc1Cl (stereo not drawn)
- Papp B→A [2]: 16 ×10⁻⁶ cm/s
- fraction unbound [5]: 0.012
- fraction unbound [6]: 0.011
- IC50 [1]: 26 µM
- Papp A→B [3]: 11 ×10⁻⁶ cm/s
- pKa [4]: 3.7

SMILES: CC(C)C1CC(O)=C(Sc2ccccc2Cl)C(=O)O1 (stereo not drawn)
- IC50 [1]: > 100 µM

SMILES: O=C1OC2(CCOc3ccccc32)CC(O)=C1Sc1ccccc1Cl (single isomer, unassigned; enantiomer A)
- IC50 [1]: 3.3 µM

SMILES: N#Cc1ccccc1C1CC(O)=C(Sc2ccccc2Cl)C(=O)O1 (stereo not drawn)
- IC50 [1]: > 100 µM
